Results on eleven compounds are retold here after patent US9113629B2, “4-amino-6-(4-substituted-phenyl)-picolinates and 6-amino-2-(4-substituted-phenyl)-pyrimidine-4-carboxylates and their use as herbicides” (DOW AGROSCIENCES LLC, priority 2013, dated 2015).

Assay in all cases: Post-emergent Test I herbicidal activity
What all share (format): in vivo

For experiment [1], the system named is AMARE: redroot pigwseed (Amaranthus retroflexus). The conditions noted are these: post-emergence, read-out: Visual Growth Reduction (%), AMARE; for pest or weed control at 3960 g/ha: 3.96 kg ai/ha; for pest or weed control at 3840 g/ha: 3.84 kg ai/ha. Here is the method: (§1) Post-emergent Test I Seeds test species were obtained from commercial suppliers and planted into a 13 cm diameter-round pot containing soil-less media mix (metro-mix 360®, Sun Gro Horticulture). Postemergence treatments were planted 8-12 days prior to application and cultured in a greenhouse equipped with supplemental light sources to provide a 16 h photoperiod at 24-29° C. All pots were surface irrigated.
(§2) A weighted amount, determined by the highest rate to be tested, of each compound was dissolved in 1.3 mL acetone-DMSO (97:3, v/v) and diluted with 4.1 mL water-isopropanol-crop oil concentrate (78:20:2, v/v/v) containing 0.02% Triton X-155 to obtain concentrated stock solutions. Additional application rates were obtained by serial dilution of the high rate solution into a solution containing appropriate volume of 97:3 v/v mixture of acetone and DMSO and appropriate volume of an aqueous mixture of water, isopropyl alcohol, crop oil concentrate (78:20:2, v/v/v) containing 0.02% Triton X-155.
(§3) Formulated compounds were applied using a DeVilbiss® compressed air sprayer at 2-4 psi. Following treatment, pots were returned to the greenhouse for the duration of the experiment. All pots were sub-irrigated as need to provide optimum growing conditions. All pots were fertilized one time per week by subirrigating with Peters Peat-Lite Special® fertilizer (20-10-20).
(§4) […] All evaluations were made visually on a scale of 0 to 100 where 0 represents no activity and 100 represents complete plant death. Visual assessments of plant injury were made based on growth reduction, discoloration, leaf deformity and necrosis.

In experiment [2] the test system is AVEFA: wild oats (Avena fatua). Conditions: post-emergence, 336 h, read-out: Visual Growth Reduction (%) 14 Days After Application, AVEFA; for pest or weed control at 3960 g/ha: 3.96 kg ai/ha; for pest or weed control at 3840 g/ha: 3.84 kg ai/ha. As to the method: as §1, §2, §3, §4
Experiment [3] relates to ECHCG: barnyardgrass (Echinochloa crus-galli). Conditions: post-emergence, 336 h, read-out: Visual Growth Reduction (%) 14 Days After Application, ECHCG; for pest or weed control at 3960 g/ha: 3.96 kg ai/ha; for pest or weed control at 3840 g/ha: 3.84 kg ai/ha. As to the method:
as §1, §2, §3, §4

Experiment [4] concerns HELAN: sunflower (Helianthus annuus). Conditions: post-emergence, 336 h, read-out: Visual Growth Reduction (%) 14 Days After Application, HELAN; for pest or weed control at 3960 g/ha: 3.96 kg ai/ha; for pest or weed control at 3840 g/ha: 3.84 kg ai/ha. Here is the method:
as §1, §2, §3, §4

The test system of experiment [5] is IPOHE: ivyleaf morningglory (Ipomoea hederecea). The conditions noted are these: post-emergence, 336 h, read-out: Visual Growth Reduction (%) 14 Days After Application, IPOHE; for pest or weed control at 3960 g/ha: 3.96 kg ai/ha; for pest or weed control at 3840 g/ha: 3.84 kg ai/ha. As to the method:
as §1, §2, §3, §4

The test system of experiment [6] is SETFA: giant foxtail (Setaria faberi). The conditions noted are these: post-emergence, 336 h, read-out: Visual Growth Reduction (%) 14 Days After Application, SETFA; for pest or weed control at 3960 g/ha: 3.96 kg ai/ha; for pest or weed control at 3840 g/ha: 3.84 kg ai/ha. As to the method: as §1, §2, §3, §4

SMILES strings stand for the structures.

Regarding `COC(=O)c1nc(-c2ccc(Br)c(F)c2F)cc(N)c1Cl` [Compound 114, methyl 4-amino-6-(4-bromo-2,3-difluorophenyl)-3-chloropicolinate], the pest or weed control at 3920 g/ha was 95 to 100% in experiment [1] (3.92 kg ai/ha); 0 to 29% in experiment [2] (3.92 kg ai/ha); 95 to 100% in experiment [3] (3.92 kg ai/ha); 95 to 100% in experiment [4] (3.92 kg ai/ha); 85 to 94% in experiment [5] (3.92 kg ai/ha); 75 to 84% in experiment [6] (3.92 kg ai/ha).

Regarding `Nc1c(F)c(-c2ccc(Br)c(F)c2F)nc(C(=O)O)c1Cl` [Compound 147], the pest or weed control at 3960 g/ha in experiment [1] was in the range of 95 to 100%; in experiment [2], 75 to 84%; in experiment [3], 95 to 100%; in experiment [4], 95 to 100%; in experiment [5], 95 to 100%; in experiment [6], 95 to 100%.

Turning to `COC(=O)c1nc(-c2ccc(C(F)F)cc2)c(F)c(N)c1Cl` [Compound 209], the pest or weed control at 4000 g/ha in experiment [1] (4 kg ai/ha) lay within 95 to 100%; in experiment [2] (4 kg ai/ha) it was 85 to 94%; in experiment [3] (4 kg ai/ha) it was 95 to 100%; in experiment [4] (4 kg ai/ha) it was 95 to 100%; in experiment [5] (4 kg ai/ha), 85 to 94%; in experiment [6] (4 kg ai/ha), 95 to 100%.

Take `COC(=O)c1nc(-c2ccc(C(F)F)c(F)c2)cc(N)c1Cl` [Compound 196]: the pest or weed control at 3840 g/ha in experiment [1] lay within 95 to 100%; in experiment [2], 60 to 74%; in experiment [3], 95 to 100%; in experiment [4], 95 to 100%; in experiment [5] it was 85 to 94%; in experiment [6], 95 to 100%.

On to `COC(=O)c1nc(-c2ccccc2)c(F)c(N)c1Cl` [Compound 181], for which the pest or weed control at 1760 g/ha in experiment [1] (1.76 kg ai/ha) lay within 95 to 100%; in experiment [2] (1.76 kg ai/ha) it was 0 to 29%; in experiment [3] (1.76 kg ai/ha), 0 to 29%; in experiment [4] (1.76 kg ai/ha), 95 to 100%; in experiment [5] (1.76 kg ai/ha), 75 to 84%; in experiment [6] (1.76 kg ai/ha) it was 0 to 29%.

Turning to `COC(=O)c1nc(-c2ccc(I)cc2)c(F)c(N)c1Cl` [Compound 118, Methyl 4-amino-6-(4-iodophenyl)-3-chloro-5-fluoropicolinate], the pest or weed control at 2320 g/ha in experiment [1] (2.32 kg ai/ha), in experiment [2] (2.32 kg ai/ha), in experiment [3] (2.32 kg ai/ha), in experiment [4] (2.32 kg ai/ha), in experiment [5] (2.32 kg ai/ha) and in experiment [6] (2.32 kg ai/ha) was 95 to 100% in each case.

As for `COC(=O)c1nc(-c2ccc(OC(F)F)cc2)c(F)c(N)c1Cl` [Compound 85], the pest or weed control at 3760 g/ha in experiment [1] (3.76 kg ai/ha) lay within 95 to 100%; in experiment [2] (3.76 kg ai/ha), 30 to 44%; in experiment [3] (3.76 kg ai/ha) it was 95 to 100%; in experiment [4] (3.76 kg ai/ha), 95 to 100%; in experiment [5] (3.76 kg ai/ha) it was 30 to 44%; in experiment [6] (3.76 kg ai/ha), 85 to 94%.

Consider `COC(=O)c1nc(-c2ccc(C#N)cc2)c(F)c(N)c1Cl` [Compound 142], for which the pest or weed control at 3840 g/ha in experiment [1] was 95 to 100%; in experiment [2] it was 45 to 59%; in experiment [3], 95 to 100%; in experiment [4] it was 95 to 100%; in experiment [5], 95 to 100%; in experiment [6] it was 60 to 74%.

Turning to `Nc1c(F)c(-c2ccc(I)cc2)nc(C(=O)O)c1Cl` [Compound 45, 4-amino-3-chloro-5-fluoro-6-(4-iodophenyl)picolinic acid], the pest or weed control at 3960 g/ha in experiment [1] was in the range of 95 to 100%; in experiment [2], 95 to 100%; in experiment [3] it was 95 to 100%; in experiment [4], 95 to 100%; in experiment [5] it was 85 to 94%; in experiment [6] it was 95 to 100%.

On to `COC(=O)c1nc(-c2ccc(C#N)cc2F)cc(N)c1Cl` [Compound 16], for which the pest or weed control at 3840 g/ha lay within 95 to 100% in experiment [1]; 0 to 29% in experiment [2]; 45 to 59% in experiment [3]; 95 to 100% in experiment [4]; 95 to 100% in experiment [5]; 60 to 74% in experiment [6].

For `N#Cc1ccc(-c2nc(C(=O)O)c(Cl)c(N)c2F)cc1F` [Compound 156], the pest or weed control at 4040 g/ha lay in the range of 95 to 100% in experiment [1] (4.04 kg ai/ha); 75 to 84% in experiment [2] (4.04 kg ai/ha); 95 to 100% in experiment [3] (4.04 kg ai/ha); 95 to 100% in experiment [4] (4.04 kg ai/ha); 95 to 100% in experiment [5] (4.04 kg ai/ha); 85 to 94% in experiment [6] (4.04 kg ai/ha).
